Patent US10385014B2, “Acyloxyalkyl carbamate prodrugs, methods of synthesis and use” (ARBOR PHARMACEUTICALS, LLC, priority 2003, dated 2019)

Tests used:
[1] = Prodrug stability in human plasma in vitro; type: in vitro ADME; conditions: 2.0 μM, 37° C.
Protocol: (§1) The stabilities of prodrugs were evaluated in one or more in vitro systems using a variety of tissue preparations following methods known in the art. The chemical stability of prodrugs in aqueous buffers at pH's of 2.0, 7.4 and 8.0 were also measured. […] Each preparation was incubated with test compound at 37° C. for one hour. Aliquots (50 μL) were removed at 0, 30, and 60 min and quenched with 0.1% trifluoroacetic acid in acetonitrile. Samples were then centrifuged and analyzed by LC/MS/MS (see Example 86 below for method details).

[2] = Prodrug stability in rat liver S9; type: in vitro ADME; conditions: Rat Liver S9 (0.5 mg/mL), 2.0 μM, NADPH, 37° C.
Protocol: as §1

[3] = Chemical stability of prodrugs in aqueous buffers; type: physicochemical
Protocol: as §1

[4] = Prodrug stability in rat plasma in vitro; type: in vitro ADME; conditions: 2.0 μM, 37° C.
Protocol: as §1

[5] = Caco-2 homogenate S9 stability; type: in vitro ADME; conditions: Caco-2 S9 (0.5 mg protein per mL), 5 μM, 37° C.
Protocol: Caco-2 Homogenate S9 Stability: Caco-2 cells were grown for 21 days prior to harvesting. Culture medium was removed and cell monolayers were rinsed and scraped off into ice-cold 10 mM sodium phosphate/0.15 M potassium chloride, pH 7.4. Cells were lysed by sonication at 4° C. using a probe sonicator. Lysed cells were then transferred into 1.5 mL centrifuge vials and centrifuged at 9000 g for 20 min at 4° C. The resulting supernatant (Caco-2 cell homogenate S9 fraction) was aliquoted into 0.5 mL vials and stored at −80° C. until used.
For stability studies, prodrug (5 μM) was incubated in Caco-2 homogenate S9 fraction (0.5 mg protein per mL) for 60 min at 37° C. Concentrations of intact prodrug and released baclofen were determined at zero time and 60 minutes using LC/MS/MS.

pancreatin = assay: Pancreatin stability; type: in vitro ADME, porcine; conditions: 1% (w/v) pancreatin, 5 μM, pH 7.5, 37° C.
Protocol: Pancreatin Stability: Stability studies were conducted by incubating prodrug (5 μM) with 1% (w/v) pancreatin (Sigma, P-1625, from porcine pancreas) in 0.025 M Tris buffer containing 0.5 M NaCl (pH 7.5) at 37° C. for 60 min. The reaction was stopped by addition of 2 volumes of methanol. After centrifugation at 14,000 rpm for […], the supernatant was removed and analyzed by LC/MS/MS.

Caco-2 cells = assay: Caco-2 cellular permeability of prodrugs; type: in vitro ADME; conditions: Caco-2 monolayer, ratio of Papp values
Protocol: For example, cellular permeability may be evaluated by examining the flux of a prodrug across a cultured polarized cell monolayer (e.g., Caco-2 cells). Caco-2 cells obtained from continuous culture (passage less than 28) were seeded at high density onto Transwell polycarbonate filters. Cells were maintained with DMEM/10% fetal calf serum+0.1 mM nonessential amino acids+2 mM L-Gln, 5% CO2/95% O2, 37° C. until the day of the experiment. Permeability studies were conducted at pH 6.5 apically (in 50 mM MES buffer containing 1 mM CaCl2, 1 mM MgCl2, 150 mM NaCl, 3 mM KCl, 1 mM NaH2PO4, 5 mM glucose) and pH 7.4 basolaterally (in Hanks' balanced salt solution containing 10 mM HEPES) in the presence of efflux pump inhibitors (250 μM MK-571, 250 μM Verapamil, 1 mM Ofloxacin). Inserts were placed in 12 or 24 well plates containing buffer and incubated for 30 min at 37 C.°. Prodrug (200 μM) was added to the apical or basolateral compartment (donor) and concentrations of prodrug and/or released parent drug in the opposite compartment (receiver) were determined at intervals over 1 hour using LC/MS/MS. Values of apparent permeability (Papp) were calculated using the equation: Papp=Vr(dC/dt)//(ACo)
Here Vr is the volume of the receiver compartment in mL; dC/dt is the total flux of prodrug and parent drug (μM/s), determined from the slope of the plot of concentration in the receiver compartment versus time; Co is the initial concentration of prodrug in μM; A is the surface area of the membrane in cm^2.

[6] = Prodrug stability in human liver S9; type: in vitro ADME; conditions: Human Liver S9 (0.5 mg/mL), 2.0 μM, NADPH, 37° C.
Protocol: as §1

Structure (SMILES) | % of Baclofen Released after 60 min [1] [%] | % of Prodrug Remaining after 60 min [1] [%] | % of Baclofen Released after 60 min [2] [%] | % of Prodrug Remaining after 60 min [2] [%] | % of Baclofen Released after 60 min ([3]; aqueous buffer pH 2.0, 37° C.) [%] | % of Prodrug Remaining after 60 min ([3]; aqueous buffer pH 2.0, 37° C.) [%] | % of Baclofen Released after 60 min ([3]; aqueous buffer pH 7.4, 37° C.) [%] | % of Prodrug Remaining after 60 min ([3]; aqueous buffer pH 7.4, 37° C.) [%] | % of Baclofen Released after 60 min ([3]; aqueous buffer pH 8.0, 37° C.) [%] | % of Prodrug Remaining after 60 min ([3]; aqueous buffer pH 8.0, 37° C.) [%] | % of Baclofen Released after 60 min [4] [%] | % of Prodrug Remaining after 60 min [4] [%] | % of Baclofen Released after 60 min [5] [%] | % of Prodrug Remaining after 60 min [5] [%] | % of Prodrug Remaining after 60 min (pancreatin) [%] | Ratio A-B/B-A (Caco-2 cells) | % of Baclofen Released after 60 min [6] [%] | % of Prodrug Remaining after 60 min [6] [%] | % of Baclofen Released after 60 min (pancreatin) [%]
CCCC(=O)OCOC(=O)NC[C@H](CC(=O)[O-])c1ccc(Cl)cc1.[Na+] [(16), Sodium 4-[(Butanoyloxymethoxy)carbonylamino]-(3R)-(4-chlorophenyl)-butanoate] | 20 | 62 | 100 | 1 | 0 | 100 | 0 | 100 | 0 | 100 | 40 | 54 | 100 | 1 | 1 | 5.1 | 100 | 1 | 
CC(C)C(=O)OCOC(=O)NC[C@H](CC(=O)[O-])c1ccc(Cl)cc1.[Na+] [(18), Sodium 4-[(Isobutanoyloxymethoxy)carbonylamino]-(3R)-(4-chlorophenyl)-butanoate] | 27 | 61 | 100 | 1 | 0 | 105 | 0 | 95 | 0 | 102 | 60 | 39 | 100 | 1 | 2 | 1.1 | 100 | 2 | 
CC(C)(C)C(=O)OCOC(=O)NC[C@H](CC(=O)[O-])c1ccc(Cl)cc1.[Na+] [(20), Sodium 4-[(Pivaloyloxymethoxy)carbonylamino]-(3R)-(4-chlorophenyl)-butanoate] | 9 |  |  |  | 0 | 100 | 0 | 100 | 0 |  | 8 |  | 100 | 1 |  |  |  | 1 | 
CC(C)C(=O)OC(OC(=O)NC[C@H](CC(=O)[O-])c1ccc(Cl)cc1)C(C)C.[Na+] (stereo partly drawn) [(25), Sodium 4-[(1-Isobutanoyloxyisobutoxy)carbonylamino]-(3R)-(4-chlorophenyl)-butanoate] | 4 |  |  | 1 | 0 |  | 0 |  | 0 | 100 |  | 5 |  | 2 |  |  |  | 4 | 
CC(C)C(=O)O[C@H](C)OC(=O)NC[C@H](CC(=O)[O-])c1ccc(Cl)cc1.[Na+] [(34), Sodium 4-{[(1S)-Isobutanoyloxyethoxy]carbonylamino}-(3R)-(4-chlorophenyl)-butanoate] | 2 |  | 100 | 1 | 0 |  | 0 | 100 | 0 | 100 |  |  | 100 | 2 |  |  | 100 | 3 | 18
CC(C)CC(=O)OCOC(=O)NC[C@H](CC(=O)[O-])c1ccc(Cl)cc1.[Na+] [(59), Sodium 4-[(3-Methylbutanoyloxymethoxy)carbonylamino]-(3R)-(4-chlorophenyl)-butanoate] |  |  | 85 | 2 | 0 |  | 1 | 103 | 2 |  |  | 2 |  | 3 |  |  |  | 1 | 
O=C([O-])C[C@@H](CNC(=O)OCOC(=O)CCc1ccccc1)c1ccc(Cl)cc1.[Na+] [(62), Sodium 4-[(3-Phenylpropionovloxymethoxy)carbonylamino]-(3R)-(4-chlorophenyl)-butanoate] | 2 |  |  | 2 | 0 |  | 2 |  | 8 |  |  | 5 |  | 1 | 1 |  |  | 0 | 
CCCC(=O)OC(OC(=O)NC[C@H](CC(=O)[O-])c1ccc(Cl)cc1)C1CCCCC1.[Na+] (stereo partly drawn) [(85), Sodium 4-[(1-Butanoyloxy-1-cyclohexylmethoxy)carbonylamino]-(3R)-(4-chlorophenyl)-butanoate] | 4 |  |  | 2 | 0 |  | 0 |  | 0 |  |  | 82 | 82 | 4 |  |  |  | 2 | 
CCCC(=O)O[C@H](CCC)OC(=O)NC[C@H](CC(=O)[O-])c1ccc(Cl)cc1.[Na+] [(86), Sodium 4-{[(1S)-Butanoyloxybutoxy]carbonylamino}-(3R)-(4-chlorophenyl)-butanoate] |  |  |  | 2 | 0 |  | 1 |  | 2 |  |  | 1 |  | 2 | 4 |  |  | 2 | 
CCCC(=O)O[C@H](OC(=O)NC[C@H](CC(=O)[O-])c1ccc(Cl)cc1)C(C)C.[Na+] [(90), Sodium 4-{[(1R)-Butanoyloxyisobutoxy]carbonylamino}-(3R)-(4-chlorophenyl)-butanoate] | 2 |  |  | 3 | 0 |  | 0 |  | 1 | 93 |  | 5 |  | 5 | 9 |  |  | 1 | 
CC(C)C(=O)O[C@H](OC(=O)NC[C@H](CC(=O)[O-])c1ccc(Cl)cc1)C(C)C.[Na+] [(100), Sodium 4-{[(1R)-Isobutanoyloxyisobutoxy]carbonylamino}-(3R)-(4-chlorophenyl)-butanoate] | 3 |  |  | 3 | 0 |  | 0 |  | 0 |  |  | 9 |  | 7 |  |  |  | 1 | 
